Results on 23 compounds are retold here after patent US10138260B2, “Compounds of phosphinanes and azaphosphinanes, a process for their preparation and pharmaceutical compositions containing them” (LES LABORATOIRES SERVIER, priority 2016, dated 2018).

What is called inhibition is the share of the control response that was lost under treatment. High values mean strong suppression, low ones little suppression.

The target in this assay is T1, TAFIa (Homo sapiens, UniProt Q96IY4).
T1 sequence (Q96IY4 115-423): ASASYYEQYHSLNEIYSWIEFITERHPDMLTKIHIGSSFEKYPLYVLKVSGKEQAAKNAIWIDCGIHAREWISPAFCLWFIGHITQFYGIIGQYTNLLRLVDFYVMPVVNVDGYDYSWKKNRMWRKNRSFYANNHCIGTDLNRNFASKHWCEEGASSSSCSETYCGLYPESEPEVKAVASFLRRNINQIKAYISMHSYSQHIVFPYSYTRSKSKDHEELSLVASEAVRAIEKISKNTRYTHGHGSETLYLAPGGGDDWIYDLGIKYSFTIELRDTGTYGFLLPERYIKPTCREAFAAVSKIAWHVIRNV
The experiment in a line: Inhibition of TAFIa (hippuryl-Arg test). Type of assay: biochemical. As to conditions: TAFIa 2 nM, hippuryl-arginine 5 mM, 45 minutes, relative to control containing the carrier; for inhibition at 0.01 µM: compound at 10 nM; for inhibition at 0.02 µM: compound at 20 nM. The procedure:
Human TAFI (4 nM) is incubated with human thrombin (10 nM) and human thrombomodulin (5 nM) in the presence of calcium (10 mM). After incubation for 20 minutes, the activation reaction is stopped by addition of PPACK (1 μM final), an irreversible thrombin inhibitor.
The reactions take place in Hepes buffer (25 mM Hepes, 137 mM NaCl, 3.5 mM KCl)+0.1% bovine albumin, pH 7.4 at 28° C. and with stirring.
The test compound is added to the solution of TAFIa (2 nM) and incubated for 45 minutes in the presence of hippuryl-arginine (5 mM). The reaction is stopped by addition of hydrochloric acid (1M) neutralised subsequently with sodium hydroxide (1M), and then the mixture is buffered with disodium hydroxyphosphate (1M pH 7.4). […] The reaction mixture is stirred (vortex) and then centrifuged. The supernatant is transferred to a 96-well microplate, and the absorbance is measured using a spectrophotometer at 405 nm (Spectramax plus, Molecular Devices).
The OD value of a well containing the reagents without TAFI is subtracted from all the OD values measured. The percentage inhibition of TAFIa at a given concentration of the test compound is determined by means of the following formula: % inhibition=100−[(OD compound×100)/OD carrier]
The compounds are evaluated at 10 nM and 20 nM under the experimental conditions described above and the results are expressed as the percentage inhibition relative to a control containing the carrier in the absence of compound.

As for `NCCCC[C@@]1(C(=O)O)CN(Cc2ccc(F)cc2-c2cccnc2)CCP1(=O)O` [Example 190, (3S)-3-(4-AMINOBUTYL)-1-[(4-FLUORO-2-PYRIDIN-3-YLPHENYL)METHYL]-4-HYDROXY-4-OXO-1,4-AZAPHOSPHINANE-3-CARBOXYLIC ACID], the inhibition at 0.01 µM turned out to be 88% and at 0.02 µM the inhibition was 95%.

`NCCCC[C@@]1(C(=O)O)CN(Cc2ccc(O)cc2-c2ccccc2)CCP1(=O)O` [Example 191, (3S)-3-(4-AMINOBUTYL)-4-HYDROXY-1-[(4-HYDROXY-2-PHENYLPHENYL)-METHYL]-4-OXO-1,4-AZAPHOSPHINANE-3-CARBOXYLIC ACID] registered an inhibition at 0.01 µM of 66% and an inhibition at 0.02 µM of 83%.

In turn, `NCCCC[C@@]1(C(=O)O)CN(Cc2ccc(F)cc2-c2ccncc2)CCP1(=O)O` [Example 192, (3S)-3-(4-AMINOBUTYL)-1-[(4-FLUORO-2-PYRIDIN-4-YLPHENYL)METHYL]-4-HYDROXY-4-OXO-1,4-AZAPHOSPHINANE-3-CARBOXYLIC ACID] had an inhibition at 0.01 µM of 77% and an inhibition at 0.02 µM of 91%.

`NCCCC[C@@]1(C(=O)O)CN(Cc2ccccc2-c2cccc(Cl)c2)CCP1(=O)O` [Example 194, (3S)-3-(4-AMINOBUTYL)-1-[[2-(3-CHLOROPHENYL)PHENYL]METHYL]-4-HYDROXY-4-OXO-1,4-AZAPHOSPHINANE-3-CARBOXYLIC ACID] gave an inhibition at 0.01 µM of 64% and an inhibition at 0.02 µM of 80%.

`NCCCC[C@@]1(C(=O)O)CN(Cc2ccc(Cl)cc2-c2ccc(Cl)cc2)CCP1(=O)O` [Example 195, (3S)-3-(4-AMINOBUTYL)-1-[[4-CHLORO-2-(4-CHLOROPHENYL)PHENYL]METHYL]-4-HYDROXY-4-OXO-1,4-AZAPHOSPHINANE-3-CARBOXYLIC ACID] gave an inhibition at 0.01 µM of 74% and an inhibition at 0.02 µM of 87%.

The compound `COc1ccc(-c2ccccc2CN2CCP(=O)(O)[C@](CCCCN)(C(=O)O)C2)cn1` [Example 196, (3S)-3-(4-AMINOBUTYL)-4-HYDROXY-1-[2-(6-METHOXYPYRIDIN-3-YL)BENZYL]-4-OXO-1,4-AZAPHOSPHINANE-3-CARBOXYLIC ACID] had an inhibition at 0.01 µM of 77% and an inhibition at 0.02 µM of 91%.

Turning to `NCCCC[C@@]1(C(=O)O)CN(Cc2ccccc2-c2ccc(F)cc2)CCP1(=O)O` [Example 197, (3S)-3-(4-AMINOBUTYL)-1-[[2-(4-FLUOROPHENYL)PHENYL]METHYL]-4-HYDROXY-4-OXO-1,4-AZAPHOSPHINANE-3-CARBOXYLIC ACID], the inhibition at 0.01 µM was found to be 60% and the inhibition at 0.02 µM is 78%.

Compound `NCCCC[C@@]1(C(=O)O)CN(Cc2ccc(F)cc2-c2ccc(Cl)cc2)CCP1(=O)O` [Example 198, (3S)-3-(4-AMINOBUTYL)-1-[[2-(4-CHLOROPHENYL)-4-FLUOROPHENYL]METHYL]-4-HYDROXY-4-OXO-1,4-AZAPHOSPHINANE-3-CARBOXYLIC ACID] gave an inhibition at 0.01 µM of 72% and an inhibition at 0.02 µM of 91%.

`NCCCC[C@@]1(C(=O)O)CN(Cc2ccccc2-c2cccc3ccccc23)CCP1(=O)O` [Example 199, (3S)-3-(4-AMINOBUTYL)-4-HYDROXY-1-[(2-NAPHTHALEN-1-YLPHENYL)-METHYL]-4-OXO-1,4-AZAPHOSPHINANE-3-CARBOXYLIC ACID]: the inhibition at 0.01 µM was 54% and at 0.02 µM the inhibition was 73%.

`CC(C)(C)c1ccccc1CN1CCP(=O)(O)[C@](CCCCN)(C(=O)O)C1` [Example 200, (3S)-3-(4-AMINOBUTYL)-1-[(2-TERT-BUTYLPHENYL)METHYL]-4-HYDROXY-4-OXO-1,4-AZAPHOSPHINANE-3-CARBOXYLIC ACID] displayed an inhibition at 0.01 µM of 28% and an inhibition at 0.02 µM of 46%.

The compound `COc1cc(-c2cc(F)ccc2CN2CCP(=O)(O)[C@](CCCCN)(C(=O)O)C2)ccc1F` [Example 201, (3S)-3-(4-AMINOBUTYL)-1-[[4-FLUORO-2-(4-FLUORO-3-METHOXYPHENYL)-PHENYL]METHYL]-4-HYDROXY-4-OXO-1,4-AZAPHOSPHINANE-3-CARBOXYLIC ACID] registered an inhibition at 0.01 µM of 69% and an inhibition at 0.02 µM of 84%.

Regarding `NCCCC[C@@]1(C(=O)O)CN(Cc2ccccc2-c2cncc3ccccc23)CCP1(=O)O` [Example 202, (3S)-3-(4-AMINOBUTYL)-4-HYDROXY-1-[(2-ISOQUINOLIN-4-YLPHENYL)-METHYL]-4-OXO-1,4-AZAPHOSPHINANE-3-CARBOXYLIC ACID], the inhibition at 0.01 µM came out at 74% and the inhibition at 0.02 µM came out at 87%.

For `COc1cc(-c2ccccc2CN2CCP(=O)(O)[C@](CCCCN)(C(=O)O)C2)ccn1` [Example 203, (3S)-3-(4-AMINOBUTYL)-4-HYDROXY-1-[[2-(2-METHOXYPYRIDIN-4-YL)PHENYL]METHYL]-4-OXO-1,4-AZAPHOSPHINANE-3-CARBOXYLIC ACID], the inhibition at 0.01 µM turned out to be 75% and the inhibition at 0.02 µM was determined as 89%.

Turning to `NCCCC[C@@]1(C(=O)O)CN(Cc2ccccc2-c2cc[nH]c(=O)c2)CCP1(=O)O` [Example 204, (3S)-3-(4-AMINOBUTYL)-4-HYDROXY-4-OXO-1-[[2-(2-OXO-1H-PYRIDIN-4-YL)PHENYL]METHYL]-1,4-AZAPHOSPHINANE-3-CARBOXYLIC ACID], testing at 0.01 µM gave an inhibition of 70% and at 0.02 µM the inhibition was 86%.

With `NCCCC[C@@]1(C(=O)O)CN(Cc2ccc(F)cc2-c2ccccc2Cl)CCP1(=O)O` [Example 206, (3S)-3-(4-AMINOBUTYL)-1-[[2-(2-CHLOROPHENYL)-4-FLUOROPHENYL]METHYL]-4-HYDROXY-4-OXO-1,4-AZAPHOSPHINANE-3-CARBOXYLIC ACID], testing at 0.01 µM gave an inhibition of 67% and at 0.02 µM the inhibition was 80%.

As to `COc1cccc(-c2ccccc2CN2CCP(=O)(O)[C@](CCCCN)(C(=O)O)C2)c1OC` [Example 207, (3S)-3-(4-AMINOBUTYL)-1-[[2-(2,3-DIMETHOXYPHENYL)PHENYL]METHYL]-4-HYDROXY-4-OXO-1,4-AZAPHOSPHINANE-3-CARBOXYLIC ACID], at 0.01 µM the inhibition was 71% and at 0.02 µM the inhibition was 85%.

The compound `CS(=O)(=O)c1ccccc1-c1ccccc1CN1CCP(=O)(O)[C@](CCCCN)(C(=O)O)C1` [Example 208, (3S)-3-(4-AMINOBUTYL)-4-HYDROXY-1-[[2-(2-METHYLSULPHONYLPHENYL)-PHENYL]METHYL]-4-OXO-1,4-AZAPHOSPHINANE-3-CARBOXYLIC ACID] showed an inhibition at 0.01 µM of 35% and an inhibition at 0.02 µM of 46%.

On to `NCCCC[C@@]1(C(=O)O)CN(Cc2ccccc2-c2ccc3ccccc3c2)CCP1(=O)O` [Example 209, (3S)-3-(4-AMINOBUTYL)-4-HYDROXY-1-[(2-NAPHTHALEN-2-YLPHENYL)-METHYL]-4-OXO-1,4-AZAPHOSPHINANE-3-CARBOXYLIC ACID], for which at 0.01 µM the inhibition was 76% and the inhibition at 0.02 µM turned out to be 87%.

In turn, `NCCCC[C@@]1(C(=O)O)CN(Cc2ccc(Cl)cc2-c2ccc(F)cc2)CCP1(=O)O` [Example 210, (3S)-3-(4-AMINOBUTYL)-1-[[4-CHLORO-2-(4-FLUOROPHENYL)PHENYL]METHYL]-4-HYDROXY-4-OXO-1,4-AZAPHOSPHINANE-3-CARBOXYLIC ACID] returned an inhibition at 0.01 µM of 71% and an inhibition at 0.02 µM of 79%.

In turn, `NCCCC[C@@]1(C(=O)O)CN(Cc2ccc(F)cc2-c2ccc(O)cc2)CCP1(=O)O` [Example 211, (3S)-3-(4-AMINOBUTYL)-1-[[4-FLUORO-2-(4-HYDROXYPHENYL)PHENYL]-METHYL]-4-HYDROXY-4-OXO-1,4-AZAPHOSPHINANE-3-CARBOXYLIC ACID] displayed an inhibition at 0.01 µM of 85% and an inhibition at 0.02 µM of 95%.

`Cn1cc(-c2cc(F)ccc2CN2CCP(=O)(O)[C@](CCCCN)(C(=O)O)C2)cn1` [Example 212, (3S)-3-(4-AMINOBUTYL)-1-[4-FLUORO-2-(1-METHYL-1H-PYRAZOL-4-YL)BENZYL]-4-HYDROXY-4-OXO-1,4-AZAPHOSPHINANE-3-CARBOXYLIC ACID] registered an inhibition at 0.01 µM of 62% and an inhibition at 0.02 µM of 86%.

With `NCCCC[C@@]1(C(=O)O)CN(Cc2ccc(F)cc2-c2cccs2)CCP1(=O)O` [Example 213, (3S)-3-(4-AMINOBUTYL)-1-[(4-FLUORO-2-THIOPHEN-2-YLPHENYL)METHYL]-4-HYDROXY-4-OXO-1,4-AZAPHOSPHINANE-3-CARBOXYLIC ACID], 0.01 µM produced 83% inhibition and testing at 0.02 µM gave an inhibition of 92%.

As to `NCCCC[C@@]1(C(=O)O)CN(Cc2ccccc2-c2cccc3cnccc23)CCP1(=O)O` [Example 214, (3S)-3-(4-AMINOBUTYL)-4-HYDROXY-1-[(2-ISOQUINOLIN-5-YLPHENYL)-METHYL]-4-OXO-1,4-AZAPHOSPHINANE-3-CARBOXYLIC ACID], testing at 0.01 µM gave an inhibition of 79% and the inhibition at 0.02 µM turned out to be 91%.
